According to patent US10561703B2, “Method of modulating sex hormone levels using a sex hormone secretion modulator” (GEMVAX & KAEL CO., LTD., priority 2013, dated 2020):

System: Testosterone
Experiment: Testosterone level in blood (serum CLIA) after repeated sc PEP-1
Type: in vivo, SD rats
Procedure: PEP-1 (peptide of SEQ ID NO: 1), lyophilized white powder, obtained according to the method mentioned in example 1 was dissolved in 0.9% of saline, considering the correction factor of PEP-1 (purity: 94.13%, content: 92.36%, correction factor: 1.15). 50 mg/mL stock solution was further diluted into 20 mg/mL, 2 mg/mL, and 1 mg/mL with 0.9% saline, and stored at 4° C. for a week until the use.
The purpose of this example is to confirm the change of sexual hormones in blood from SD rats with 7 days repeated daily administration of SEQ ID NO: 1 peptide, PEP-1. This experiment followed the Ethics Regulation of Animal Test by KAMSI Inc. (Korea Animal Medical Science Institute). In addition, this experiment, Non-GLP experiment, referred to the MFDS (Ministry of Food and Drug Safety) notification; Agent 2013-40 (5th April 2013), Principles of Good Laboratory Practice (1997).
SPF Rats (Crlj:CD(SD)) were purchased from ORIENTBio Inc. (Mokdong-ri, Buk-myeon, Gapyeong-gun, Gyeonggi-do, Republic of Korea). 75 male (6.5 weeks old and 190˜210 g) and 75 female (6.5 weeks old and 160˜180 g) rats were monitored for 4 days, and 64 of male and female rats (each) were selected for the experiment. Raising condition is as follows; 23±3° C. of temperature, […] of relative humidity, 10˜20 times/hr of number of air changes, 12 hours (8 a.m.˜8 p.m.) of lighting with 150˜300 Lux of intensity.
64 male and female […] (mentioned above) were divided into 8 groups. Administration regimen, for example, drugs, routes, dosages, and volumes were as follows:
The detailed administration regimen is as follows; once a day, twice a day and twice a week in each experimental group. Injection initiated at 10 a.m. every day, and each rat was injected at one minute intervals. Rats in Group 9, 10, 13 and 14 were injected twice a week. Administration of high dose test agent preceded that of low dose. The volume of injection was calculated using recently measured weight of rats, and it was 5 mL/kg. Subcutaneous injection was performed as follows; assistant tilted the back of rat upward, and experimenter sterilized the back of rat with 70% alcohol, followed by subcutaneous injection of test agent with 26 G syringe.
1.4 mL of blood sample (0.7 mL of serum) was collected after measurement of weight (Day 0). Next day (1 Day), 1.4 mL of blood sample (0.7 mL of serum) was collected twice after injection of test agent (4 hrs and 8 hrs after administration of test agent). For next 6 days (Day 2˜Day 7), 1.4 mL of blood was extracted once everyday (4 hours after injection of test agent). Dose and volume of test agent of each group followed the Table 3, and injection time zone was same every day. Blood was extracted from the jugular vein, and left at room temperature for 30 minutes. Serum was separated using centrifugation (10,000 rpm for 5 minutes), and stored at −70±5° C. in Deep freezer until the use. Blood extraction from each subject was done in the same time zone every day.
A CLIA (Chemi-Luminescence Immune Assay) Kit was used to analyze Testosterone, Estradiol E2, FSH (Follicle stimulating hormone), and LH (Luteinizing hormone). Analysis was completed within 48 hrs after blood extraction (Laboratory Medicine Department, Chung-Ang University Hospital), and detailed method is as follows; One-way ANOVA was used to verify the comparison between the vehicle and PEP-1, and between different doses of PEP-1. For further analysis, Duncan test was used as parametric test and Dunnett's test as non-parametric test. p<0.05 represents the statistical significance, and all statistical analysis was carried out with SPSS 10.1.
Testosterone was analyzed using the samples prepared from example 2. 15 μL of serum was used for analysis. Fundamentals of analysis is competitive immunoassay based on direct chemi-luminescent. As mentioned in example 2, CLIA (Chemi-luminescence immune assay) Kit was used for Testosterone analysis, following the manufacture's protocol. […]

EARPALLTSRLRFIPK (listed as Homo sapiens) [PEP-1, hormone secretion modulator / GnRH analog]
Testosterone level in blood (G11 Female 100 mg/kg sc 1/day x7, 6 days): 1.01 ng/dL | Testosterone level in blood (G11 Female 100 mg/kg sc 1/day x7, 7 days): 1.25 ng/dL | Testosterone level in blood (G11 Female 100 mg/kg sc 1/day x7, pre): 1.79 ng/dL | Testosterone level in blood (G12 Male 100 mg/kg sc 1/day x7, 4 hr): 0.08 ng/dL | Testosterone level in blood (G12 Male 100 mg/kg sc 1/day x7, 8 hr): 0.01 ng/dL | Testosterone level in blood (G12 Male 100 mg/kg sc 1/day x7, 2 days): 0.01 ng/dL | Testosterone level in blood (G12 Male 100 mg/kg sc 1/day x7, 3 days): 0.05 ng/dL | Testosterone level in blood (G12 Male 100 mg/kg sc 1/day x7, 4 days): 0.17 ng/dL | Testosterone level in blood (G12 Male 100 mg/kg sc 1/day x7, 5 days): 0.11 ng/dL | Testosterone level in blood (G12 Male 100 mg/kg sc 1/day x7, 6 days): 0.12 ng/dL | Testosterone level in blood (G12 Male 100 mg/kg sc 1/day x7, 7 days): 0.12 ng/dL | Testosterone level in blood (G12 Male 100 mg/kg sc 1/day x7, pre): 0.18 ng/dL | Testosterone level in blood (G13 Female 100 mg/kg sc 2/week x2 (days 1,7), 4 hr): 7.48 ng/dL | Testosterone level in blood (G13 Female 100 mg/kg sc 2/week x2 (days 1,7), 8 hr): 6.34 ng/dL | Testosterone level in blood (G13 Female 100 mg/kg sc 2/week x2 (days 1,7), 2 days): 0.97 ng/dL | Testosterone level in blood (G13 Female 100 mg/kg sc 2/week x2 (days 1,7), 3 days): 1.65 ng/dL | Testosterone level in blood (G13 Female 100 mg/kg sc 2/week x2 (days 1,7), 4 days): 1.25 ng/dL | Testosterone level in blood (G13 Female 100 mg/kg sc 2/week x2 (days 1,7), 5 days): 1.3 ng/dL | Testosterone level in blood (G13 Female 100 mg/kg sc 2/week x2 (days 1,7), 6 days): 2.54 ng/dL | Testosterone level in blood (G13 Female 100 mg/kg sc 2/week x2 (days 1,7), 7 days): 12.35 ng/dL | Testosterone level in blood (G13 Female 100 mg/kg sc 2/week x2 (days 1,7), pre): 1.71 ng/dL | Testosterone level in blood (G14 Male 100 mg/kg sc 2/week x2 (days 1,7), 4 hr): 0.07 ng/dL | Testosterone level in blood (G14 Male 100 mg/kg sc 2/week x2 (days 1,7), 8 hr): 0.01 ng/dL | Testosterone level in blood (G14 Male 100 mg/kg sc 2/week x2 (days 1,7), 2 days): 0.01 ng/dL | Testosterone level in blood (G14 Male 100 mg/kg sc 2/week x2 (days 1,7), 3 days): 0.13 ng/dL | Testosterone level in blood (G14 Male 100 mg/kg sc 2/week x2 (days 1,7), 4 days): 0.17 ng/dL | Testosterone level in blood (G14 Male 100 mg/kg sc 2/week x2 (days 1,7), 5 days): 0.13 ng/dL | Testosterone level in blood (G14 Male 100 mg/kg sc 2/week x2 (days 1,7), 6 days): 0.14 ng/dL | Testosterone level in blood (G14 Male 100 mg/kg sc 2/week x2 (days 1,7), 7 days): 0.15 ng/dL | Testosterone level in blood (G14 Male 100 mg/kg sc 2/week x2 (days 1,7), pre): 0.13 ng/dL | Testosterone level in blood (G15 Female 250 mg/kg sc 1/day x7, 4 hr): 6.27 ng/dL | Testosterone level in blood (G15 Female 250 mg/kg sc 1/day x7, 8 hr): 8.2 ng/dL | Testosterone level in blood (G15 Female 250 mg/kg sc 1/day x7, 2 days): 3.77 ng/dL | Testosterone level in blood (G15 Female 250 mg/kg sc 1/day x7, 3 days): 2.09 ng/dL | Testosterone level in blood (G15 Female 250 mg/kg sc 1/day x7, 4 days): 0.8 ng/dL | Testosterone level in blood (G15 Female 250 mg/kg sc 1/day x7, 5 days): 0.75 ng/dL | Testosterone level in blood (G15 Female 250 mg/kg sc 1/day x7, 6 days): 1.27 ng/dL | Testosterone level in blood (G15 Female 250 mg/kg sc 1/day x7, 7 days): 1.52 ng/dL | Testosterone level in blood (G15 Female 250 mg/kg sc 1/day x7, pre): 1.65 ng/dL | Testosterone level in blood (G16 Male 250 mg/kg sc 1/day x7, 4 hr): 0.11 ng/dL | Testosterone level in blood (G16 Male 250 mg/kg sc 1/day x7, 8 hr): 0.03 ng/dL | Testosterone level in blood (G16 Male 250 mg/kg sc 1/day x7, 2 days): 0 ng/dL | Testosterone level in blood (G16 Male 250 mg/kg sc 1/day x7, 3 days): 0.08 ng/dL | Testosterone level in blood (G16 Male 250 mg/kg sc 1/day x7, 4 days): 0.18 ng/dL | Testosterone level in blood (G16 Male 250 mg/kg sc 1/day x7, 5 days): 0.09 ng/dL | Testosterone level in blood (G16 Male 250 mg/kg sc 1/day x7, 6 days): 0.14 ng/dL | Testosterone level in blood (G16 Male 250 mg/kg sc 1/day x7, 7 days): 0.12 ng/dL | Testosterone level in blood (G16 Male 250 mg/kg sc 1/day x7, pre): 0.18 ng/dL | Testosterone level (female group, after injection of PEP-1): 0.05 ng/dL | Effect on the Testosterone level (female rat): does not have significant effect | Testosterone level (male groups, Day 1, all groups injected with PEP-1): 6 to 10 ng/dL | Testosterone level, PEP-1 versus vehicle (male groups, after Day 3): no significant difference between PEP-1 and vehicle
